The structures appear in SMILES notation.

The test system of data set [1] is L. donovani promastigotes (MHOM/NP/02/BPK282/0cl4). The data set can be described thus: Promastigote growth inhibition assay (alamarBlue). Format: cell-based. The settings on record: Leishmania donovani, HOMEM with 10% FBS.
Data set [2] concerns L. donovani promastigotes. The data set is described as follows: Promastigote growth inhibition in the presence of an iron chelator (DFO or DFP), isobologram. To be noted: for Interaction with the iron chelator DFP (isobologram, FIC): FIC values > 0.5 and < 4; for IC50: Leishmania donovani, no DFO, read-out: IC50 against promastigotes, absence of DFO; for Interaction with the iron chelator DFO (isobologram, ΣFIC): synergism <0.5, antagonism >4.0, else additivity. Format: cell-based, Leishmania donovani. The method, then:
At first, we determined IC50 and CC50 values of the iron chelator DFO (187 and >400 μM, respectively). Then, the effect of the iron chelator presence on the bioactivity of the two compounds was studied by coincubating 2a and 3a with DFO at different concentrations. The variation of IC50 of the compounds in relation to the different doses of DFO was determined by the alamarBlue assay (Table 3), and the isobole technique was employed to depict the interactions of 2a and 3a with DFO (Figure 6).
The isobole technique was used for depicting synergistic or antagonistic interaction between the iron chelator and the two compounds on the parasite growth (Figure 6). Combinations are expressed as the sum of the fractional inhibitory concentrations (ΣFIC), and FIC values are defined as synergism (<0.5), antagonism (>4.0), and additivity (no interaction). The strength of synergism (or antagonism) is indicated by the degree of deviation from the line of additivity.
[…]. Each compound was added using a concentration range including the IC50 of each compound. Each experiment was performed in duplicate. The viability of the parasites was determined by the alamarBlue assay. The fractional inhibitory concentration (FIC; FIC = IC50 of the drug in the combination/IC50 of the drug when tested alone) of each compound was calculated and plotted as an isobologram.

The subject of data set [3] is intramacrophage amastigotes of L. donovani. The data set is described as follows: Amastigote growth inhibition assay in infected THP-1 cells (Giemsa, infectivity index). Format: cell-based, Leishmania donovani. To be noted: for IC50: Leishmania donovani, intracellular amastigotes in THP-1, 72 h, read-out: IC50 against amastigotes of L. donovani. Here is the method: To evaluate the efficacy of the compounds on the intracellular form of L. donovani, human acute monocytic leukemia cell line (THP-1) was infected with L. donovani promastigotes. Cells were harvested and seeded in a 96-well plate (10^5 cells mL^–1) in the complete RPMI 1640 medium, and PMA (0.1 μM, Cayman Chemical Company, Ann Arbor, Michigan, USA) was added for obtaining maturation and cell adherence. Cells were incubated at 37 °C in a 5% CO2 incubator. After 48 h, the medium was replaced with the fresh medium containing stationary-phase promastigotes that were then phagocyted by monocytic cells and transformed into intracellular amastigotes. After 24 h of incubation, newly synthesized compounds were added and the plates were incubated at 37 °C in a 5% CO2 incubator for 72 h. After incubation, wells were washed, fixed, and stained with Giemsa. Staining was detected using a Nikon Eclipse E200 light microscope (Nikon, Tokyo, Japan). The infectivity index (% of infected macrophages × average number of amastigotes per macrophage) was determined by counting at least 100 cells in duplicate cultures.

Data set [4] can be described thus: Cytotoxicity test on Vero cells (alamarBlue). Type of data set: cell-based, African green monkey. The settings on record: chlorocebus sabaeus, Vero cells (kidney epithelial cell line); 72 h, alamarBlue; read-out: CC50 (50% cytotoxic concentration) on Vero cells. The method, then: Vero cells (kidney of African green monkey epithelial cell line) were cultured at 37 °C in the MEM liquid medium supplemented with 10% FBS (EuroClone SpA), 1% levoglutamine (EuroClone SpA), and 1% penicillin–streptomycin (EuroClone SpA). THP-1 cells (human leukemia monocytic cell line) were cultured at 37 °C in the RPMI 1640 (EuroClone SpA) liquid medium supplemented with 10% FBS (EuroClone SpA), 1% levoglutamine (EuroClone SpA), 1% penicillin–streptomycin, and mercaptoethanol (Gibco) 50 μM.
The cytotoxicity of the compounds was determined using mammalian kidney epithelial cells (Vero cell line) and human acute monocytic leukemia cell line (THP-1). Cells were seeded (10^5 cells mL^–1) on 96-well plates with the complete MEM medium and incubated with test compounds at 37 °C in a 5% CO2 incubator. After 72 h of incubation, 20 μL of the alamarBlue reagent was added to each well and incubated at 37 °C for 24 h. Reduction of resazurin to resorufin was evaluated after 24 h by absorbance measurement at the Multiskan ascent plate reader (Thermo Fisher Scientific Inc.,) at 550 and 630 nm. […] Each experiment was performed in duplicate.

Where [5] appears, read: THP-1 CC50 / IC50 on amastigotes.
Setting [6] is: Vero CC50 / IC50 on amastigotes.

As usually defined, the IC50 is the midpoint of a concentration-inhibition curve. Regarding `CCCCC1(CCCC)CO[C@@](C)(OC)[C@@H](CNCCCn2ccnc2)C1` (racemic) [3a, N-((5,5-Dibutyl-2-methoxy-2-methyltetrahydro-2H-pyran-3-yl)methyl)-3-(1H-imidazol-1-yl)propan-1-amine], the IC50 in data set [1] came to 1.9 µM; in data set [2], 3.4 ± 0.4 µM; in data set [3], 3.4 ± 0.6 µM. Further, the “Interaction with the iron chelator DFP (isobologram, FIC)” value in data set [2] is “no antagonism or synergism”. The “Interaction with the iron chelator DFO (isobologram, ΣFIC)” value in data set [2] was “additive effects”. Also, the entries for the “Selectivity index (SI) = CC50/IC50” value in data set [3] (setting [5]) and in data set [3] (setting [6]) were 7.6 and 10.3, respectively. Besides, the CC50 at 72 h in data set [4] came out at 35.2 ± 4.7 µM.
On to `CCCCC1(CCCC)C[C@H](CNCCCn2ccnc2)[C@](C)(OC)OO1` [2a], for which the IC50 in data set [1] came out at 2.7 µM; in data set [2] it was 7.5 ± 1.7 µM; in data set [3] it was 12.2 ± 1.2 µM. For the same molecule, in data set [2], the “Interaction with the iron chelator DFP (isobologram, FIC)” value is “no antagonism or synergism”. In addition, in data set [2], the “Interaction with the iron chelator DFO (isobologram, ΣFIC)” value was “additive effects”. For the same molecule, the figures for the “Selectivity index (SI) = CC50/IC50” value in data set [3] (setting [5]) and in data set [3] (setting [6]) were 7.0 and 5.9, respectively. For the same molecule, the CC50 at 72 h in data set [4] stood at 72 ± 6.6 µM.

The record behind these values is publication PMC8018184, “Evaluation of the Pharmacophoric Role of the O–O Bond in Synthetic Antileishmanial Compounds: Comparison between 1,2-Dioxanes and Tetrahydropyrans” (Journal of Medicinal Chemistry, 2020).
